According to article PMC11413682 (Acta Pharmaceutica Sinica. B, 2024):
Read-outs that look alike come from different tables or passages of the source. Residues, ends and D or L forms follow the SMILES beside them. No end group written: not given here.

Target: T1, CUL2^ZYG11B (residues 490–728) (Homo sapiens, UniProt Q9C0D3)
T1 construct: PCR was used to amplify CUL2^ZYG11B (residues 490–728); 6×His-SUMO (TEV-cleavable) (N, cleaved yes); made in house; host or cells: E. coli
Test: ITC binding of ORF10 NTE synthetic peptides to CUL2^ZYG11B

[1] = figure panels, […], repeated 3 times, read-out: Kd

T1 sequence (Q9C0D3 490-728): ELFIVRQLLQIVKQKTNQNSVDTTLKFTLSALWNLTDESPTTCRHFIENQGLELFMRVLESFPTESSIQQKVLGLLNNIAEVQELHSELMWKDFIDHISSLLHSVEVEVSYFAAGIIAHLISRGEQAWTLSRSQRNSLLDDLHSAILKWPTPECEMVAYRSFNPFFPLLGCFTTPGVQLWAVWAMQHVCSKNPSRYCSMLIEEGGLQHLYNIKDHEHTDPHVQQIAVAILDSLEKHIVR

SYINV [SARS-2 ORF10 N5-G1S]
Kd: 13.2 µM

GPINV [SARS-2 ORF10 N5-Y2P, altered peptide derived from SARS-CoV-2 ORF10 N5, Y2P]
binding to CUL2^ZYG11B (in words) (ITC): disrupted binding completely

GAINV [SARS-2 ORF10 N5-Y2A]
Kd [1]: 25.2 µM

GFWCR [SNX11-degron-5, reference compound]
Kd (Table S4, ITC, MicroCal iTC200, peptide 0.5–1 mmol/L in syringe, protein 0.03 mmol/L in cell, 18 x 2 μL injections, repeated 3 times, Kd calculated as 1/Ka, read-out: Kd): 0.4 µM

NCC(=O)N[C@@H](Cc1ccc(O)cc1)C(=O)O [SARS-2 ORF10 N2] (H-Gly-Tyr-OH; N-terminus and C-terminus assumed)
Kd: > 200 µM | binding to CUL2^ZYG11B (in words) (ITC): did not bind | N, stoichiometry (Table S4, ITC): 5.05 | ΔS, entropy variation (Table S4, ITC): 6.52 cal/mole/deg

CC[C@H](C)[C@H](NC(=O)[C@H](Cc1ccc(O)cc1)NC(=O)CN)C(=O)O [SARS-2 ORF10 N3] (H-Gly-Tyr-Ile-OH)
Kd [1]: 14.5 µM

CC[C@H](C)[C@H](NC(=O)[C@H](Cc1ccc(O)cc1)NC(=O)CN)C(=O)N[C@@H](CC(N)=O)C(=O)O [SARS-2 ORF10 N4] (H-GYIN-OH)
Kd [1]: 5.18 µM
